Consider twelve molecules from ChEMBL document CHEMBL5230104, “Systemic review on B-RafV600E mutation as potential therapeutic target for the treatment of cancer” (Eur J Med Chem, 2020).

The subject of test [1] is A549. As to the kind of experiment: Antiproliferative activity against human A549 cells incubated for 48 hrs by MTT assay. The test is classed as functional, cell-based. The conditions noted are these: A549, 48 h. In general terms: Tetrazolium dyes change colour on reduction, which living cells bring about.
For test [2], the system named is A-375. Kind of test: Antiproliferative activity against human A-375 cells incubated for 48 hrs by MTT assay. The test is classed as functional, cell-based. Conditions: A-375, 48 h.
For test [3], the system named is HT-29. As to the kind of experiment: Antiproliferative activity against human HT-29 cells incubated for 48 hrs by MTT assay. The test is classed as functional, cell-based. Conditions: HT-29, 48 h.
The test system of test [4] is PC-3. Kind of test: Antiproliferative activity against human PC-3 cells incubated for 48 hrs by MTT assay. The test is classed as functional, cell-based. The conditions noted are these: PC-3, 48 h.
Test [5] deals with T1, Serine/threonine-protein kinase B-raf (Homo sapiens, UniProt P15056). Kind of test: Inhibition of wild type B-Raf (unknown origin).
Test [6] has as its target T2, Serine/threonine-protein kinase B-raf (Homo sapiens, UniProt P15056, V600E). Kind of test: Inhibition of B-Raf V600E mutant (unknown origin).
Target sequence in this assay (P15056 whole entry V600E): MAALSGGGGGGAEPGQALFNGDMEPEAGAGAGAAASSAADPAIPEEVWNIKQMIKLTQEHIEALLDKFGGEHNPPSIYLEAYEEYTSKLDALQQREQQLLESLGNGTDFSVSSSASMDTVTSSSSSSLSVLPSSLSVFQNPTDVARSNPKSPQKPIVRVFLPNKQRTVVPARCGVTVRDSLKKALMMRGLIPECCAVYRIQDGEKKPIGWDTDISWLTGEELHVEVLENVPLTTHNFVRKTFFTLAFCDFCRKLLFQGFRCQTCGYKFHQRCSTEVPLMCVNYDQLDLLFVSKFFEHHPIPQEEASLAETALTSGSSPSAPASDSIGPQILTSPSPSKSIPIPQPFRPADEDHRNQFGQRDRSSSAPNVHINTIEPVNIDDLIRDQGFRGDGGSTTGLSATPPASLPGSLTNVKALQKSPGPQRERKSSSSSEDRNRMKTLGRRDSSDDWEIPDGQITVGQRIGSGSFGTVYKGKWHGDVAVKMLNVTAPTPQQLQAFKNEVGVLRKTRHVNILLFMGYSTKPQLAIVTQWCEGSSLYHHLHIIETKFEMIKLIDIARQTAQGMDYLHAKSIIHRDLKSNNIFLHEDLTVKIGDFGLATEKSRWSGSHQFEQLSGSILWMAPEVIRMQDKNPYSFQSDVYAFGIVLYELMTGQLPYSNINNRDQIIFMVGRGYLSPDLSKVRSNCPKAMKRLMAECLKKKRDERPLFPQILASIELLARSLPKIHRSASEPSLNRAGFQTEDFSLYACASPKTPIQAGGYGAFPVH
The subject of test [7] is A549. Kind of test: Antiproliferative activity against human A549 cells assessed as cell growth inhibition. The test is classed as functional, cell-based.
Test [8] is described as follows: Inhibition of full length GST tagged mouse B-Raf V600E mutant measured after 25 mins by ELISA method. For orientation: In an ELISA, binding on a coated surface is turned into a signal by an enzyme label.
A further test concerns WM 266-4. As to the kind of experiment: Antiproliferative activity against human WM266-4 cells incubated for 24 hrs by MTT assay. The test is classed as functional, cell-based. Conditions: WM 266-4, 24 h.
The test system of test [9] is A-375. As to the kind of experiment: Antiproliferative activity against human A-375 cells assessed as inhibition of cell growth. The test is classed as functional, cell-based.
The test system of test [10] is SK-MEL-2. As to the kind of experiment: Antiproliferative activity against human SK-MEL-2 cells assessed as inhibition of cell growth. The test is classed as functional, cell-based.
A further test has as its system COLO 205. As to the kind of experiment: Antiproliferative activity against human COLO 205 cells assessed as inhibition of cell growth. The test is classed as functional, cell-based.
Test [11] has as its system HepG2. Kind of test: Antiproliferative activity against human HepG2 cells assessed as inhibition of cell growth. The test is classed as functional, cell-based.
Test [12] deals with SK-MEL-2. Kind of test: Anticancer activity against human SK-MEL-2 cells. The test is classed as functional, cell-based.
For the next test, the system named is HCT-116. Kind of test: Anticancer activity against human HCT-116 cells. The test is classed as functional, cell-based.
Test [13] has as its system A549. As to the kind of experiment: Anticancer activity against human A549 cells. The test is classed as functional, cell-based.
In the next test the test system is MV4-11. Kind of test: Anticancer activity against human MV4-11 cells. The test is classed as functional, cell-based.
Test [14] relates to K562. Kind of test: Anticancer activity against human K562 cells. The test is classed as functional, cell-based.
The test system of test [15] is A-375. Kind of test: Antiproliferative activity against human A-375 cells. The test is classed as functional, cell-based.
The test system of test [16] is SK-MEL-28. Kind of test: Antiproliferative activity against human SK-MEL-28 cells. The test is classed as functional, cell-based.
In test [17] the target is T1, Serine/threonine-protein kinase B-raf. Kind of test: Inhibition of wild type B-Raf (unknown origin) by hotspot kinase assay.
Test [18] has as its target T2, Serine/threonine-protein kinase B-raf. As to the kind of experiment: Inhibition of B-Raf V600E mutant (unknown origin) by hotspot kinase assay.
Target sequence in this assay (P15056 2-766 V600E limits assumed): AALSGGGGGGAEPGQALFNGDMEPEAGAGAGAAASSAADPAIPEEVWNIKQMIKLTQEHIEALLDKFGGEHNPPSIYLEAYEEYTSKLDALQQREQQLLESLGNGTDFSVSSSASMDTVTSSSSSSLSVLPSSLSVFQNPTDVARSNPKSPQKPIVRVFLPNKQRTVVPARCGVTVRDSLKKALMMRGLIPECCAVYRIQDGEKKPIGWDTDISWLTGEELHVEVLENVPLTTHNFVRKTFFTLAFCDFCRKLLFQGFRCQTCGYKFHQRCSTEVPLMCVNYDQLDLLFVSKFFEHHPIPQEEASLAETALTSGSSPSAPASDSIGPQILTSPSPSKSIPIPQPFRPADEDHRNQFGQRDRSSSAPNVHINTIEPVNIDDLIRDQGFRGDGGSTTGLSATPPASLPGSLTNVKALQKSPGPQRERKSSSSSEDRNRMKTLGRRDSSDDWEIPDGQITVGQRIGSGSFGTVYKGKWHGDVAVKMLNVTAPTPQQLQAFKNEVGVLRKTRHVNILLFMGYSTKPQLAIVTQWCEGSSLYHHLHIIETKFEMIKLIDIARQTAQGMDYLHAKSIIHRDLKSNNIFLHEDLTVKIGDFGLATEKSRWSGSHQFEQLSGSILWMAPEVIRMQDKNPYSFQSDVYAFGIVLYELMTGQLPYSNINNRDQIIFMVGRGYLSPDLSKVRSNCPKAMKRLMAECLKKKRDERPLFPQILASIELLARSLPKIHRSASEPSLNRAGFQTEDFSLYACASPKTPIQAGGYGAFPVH
For test [19], the target named is T1, Serine/threonine-protein kinase B-raf. As to the kind of experiment: Inhibition of wild type B-Raf (unknown origin) by radiometric protein kinase-reaction biology assay.
For test [20], the system named is K562. As to the kind of experiment: Antiproliferative activity against human K562 cells assessed as reduction in cell viability. The test is classed as functional, cell-based.
The test system of test [21] is SK-MEL-28. As to the kind of experiment: Antiproliferative activity against human SK-MEL-28 cells assessed as reduction in cell viability. The test is classed as functional, cell-based.
Test [22] concerns HT-29. As to the kind of experiment: Antiproliferative activity against human HT-29 cells assessed as reduction in cell viability. The test is classed as functional, cell-based.
Test [23] deals with T2, Serine/threonine-protein kinase B-raf. As to the kind of experiment: Inhibition of B-Raf V600E mutant (unknown origin) by radiometric protein kinase-reaction biology assay.
Target sequence in this assay (P15056 2-766 V600E limits assumed): as above
For the next test, the system named is T47D. As to the kind of experiment: Antiproliferative activity against human T47D cells assessed as reduction in cell viability. The test is classed as functional, cell-based.
Another test has as its system UO-31. Kind of test: Antiproliferative activity against human UO-31 cells assessed as reduction in cell viability. The test is classed as functional, cell-based.
A further test concerns IGROV-1. Kind of test: Antiproliferative activity against human IGROV-1 cells assessed as reduction in cell viability. The test is classed as functional, cell-based.
A further test concerns U-251. As to the kind of experiment: Antiproliferative activity against human U-251 cells assessed as reduction in cell viability. The test is classed as functional, cell-based.
Test [24] relates to PC-3. Kind of test: Antiproliferative activity against human PC-3 cells assessed as reduction in cell viability. The test is classed as functional, cell-based.
The test system of test [25] is A-375. As to the kind of experiment: Antiproliferative activity against human A-375 cells assessed as reduction in cell viability. The test is classed as functional, cell-based.
Another test relates to NCI-H460. Kind of test: Antiproliferative activity against human NCI-H460 cells assessed as reduction in cell viability. The test is classed as functional, cell-based.
The subject of another test is SK-MEL-5. As to the kind of experiment: Antiproliferative activity against human SK-MEL-5 cells assessed as reduction in cell viability. The test is classed as functional, cell-based.
A short description of test [26]: Inhibition of full length GST tagged mouse B-Raf V600E mutant incubated for 1 hr.
The next test concerns MDA-MB-453. As to the kind of experiment: Antiproliferative activity against human MDA-MB-453 cells. The test is classed as functional, cell-based.
Another test relates to SW480. As to the kind of experiment: Antiproliferative activity against human SW480 cells. The test is classed as functional, cell-based.
Test [27] deals with HepG2. Kind of test: Antiproliferative activity against human HepG2 cells. The test is classed as functional, cell-based.

T1 sequence (P15056 whole entry): as the sequence (P15056 whole entry V600E) above, with E600V counted along it

Take `Cn1ncc2c(Oc3ccc(NC(=O)Nc4ccc(Cl)c(C(F)(F)F)c4)cc3)ncnc21`: the IC50 (commonly the concentration needed to halve the response being measured) in the test on A549 [1] came out at 12500 nM; with A-375 [2], 12200 nM; in the test on HT-29 [3] it was 14700 nM; in the test with PC-3 [4] it was 23400 nM.

As to `O=S(=O)(Nc1ccc(F)c(Nc2ccccc2-c2ncnc3[nH]cnc23)c1F)c1ccoc1`, the IC50 in test [5] was found to be 2.2 nM; in test [6], 2 nM.

For the molecule `Cc1ccc(C2=NN=C(NC(=S)Nc3ccc(Cl)cc3)SC2)cc1`, the results for the IC50 (in test [6]; in the test with A549 [7]) were 180 nM and 320 nM, respectively.

Regarding `Oc1ccccc1C1CC(c2ccc(Cl)c(Cl)c2)=NN1c1ccccc1` (centres undefined), the results for the IC50 (in test [8]; with WM 266-4) were 150 nM and 1750 nM, respectively.

Turning to `Cc1ccc(C(=O)Nc2ccc(Cl)c(C(F)(F)F)c2)cc1NC(=O)C1(c2ccnc(NCCN3CCN(C)CC3)n2)CC1`, the IC50 in the test with A-375 [9] is 1070 nM; in test [5], 19.7 nM; in test [6], 12.6 nM; in the test on SK-MEL-2 [10], 580 nM; in the test on COLO 205 it was 1920 nM; in the test on HepG2 [11], 2460 nM.

Consider `O=C(Nc1ccc(Oc2ccc(C(=O)c3ncc[nH]3)cc2)cc1)Nc1ccc(Cl)c(C(F)(F)F)c1`, for which the IC50 in the test on SK-MEL-2 [12] was 5400 nM; in test [5] it was 134 nM; in test [6], 86 nM; in the test on HCT-116, 10900 nM; with A549 [13], 9110 nM; in the test with MV4-11 it was 380 nM. The same molecule registered an IC50 in the test on K562 [14] of 9130 nM.

Regarding `CCCCN1CCN(Oc2cc3nccc(Oc4ccc(NS(=O)(=O)c5cc(F)ccc5F)cc4F)c3cc2OC)CC1`, the IC50 in test [5] amounted to 100 nM; in test [6], 91 nM.

For the molecule `COc1cc(-c2nn(-c3ccc(NC(=O)CN4CCOCC4)cc3)cc2-c2ccncc2)ccc1Cl`, the IC50 in the test on A-375 [15] came out at 1820 nM; with SK-MEL-28 [16] it was 2210 nM; in test [17], 536 nM; in [18], 2.98 nM.

Consider `O=S(=O)(NCCCNc1nccc(-c2c(-c3cccc(F)c3)nc3occn23)n1)c1ccccc1`, for which the IC50 in test [19] was determined as 172 nM; in the test on K562 [20] it was 56300 nM; with SK-MEL-28 [21], 11200 nM; with HT-29 [22], 51800 nM; in test [23], 92 nM; in the test on T47D it was 53600 nM. The IC50 in the test on UO-31 stood at 39800 nM; in the test with IGROV-1, 40200 nM; with U-251, 7380 nM; with PC-3 [24] it was 38900 nM; with A-375 [25] it was 9810 nM; in the test on NCI-H460, 18500 nM. Further, the IC50 in the test with SK-MEL-5 is 28400 nM.

In test [26], `Cc1ccc(NC(=S)NNC(=O)CNc2nc(-c3ccccc3)c(-c3ccccc3)s2)cc1` registered an IC50 of 1300 nM.

Take `Cc1nn(-c2ccccc2)c(Cl)c1Nc1ccc(C(F)(F)F)cc1`: the IC50 with A-375 [15] was found to be 810 nM; in test [6] it was 66 nM.

As for `CNC(=O)c1cc(Cn2ccc3cc(NC(=O)Nc4ccc(Cl)c(C(F)(F)F)c4)ccc32)ccn1`, the IC50 came to 510 nM in [6], 21900 nM with MDA-MB-453, 13500 nM in the test on SW480 and 6630 nM with HepG2 [27].
